Reference: ChEMBL document CHEMBL4265921, “Novel bisphosphonates with antiresorptive effect in bone mineralization and osteoclastogenesis” (Eur J Med Chem, 2018)
Activity calls are given as the source filed them. The calls are words filed in the database; no cut-off is given here.

How the values were obtained:
J774.A1 [1] = experiment: Antiproliferative activity against mouse J774A.1 cells assessed as reduction in cell proliferation at 500 uM after 72 hrs by crystal violet staining based assay; type: functional
PC-3 [2] = experiment: Antiproliferative activity against human PC3 cells assessed as reduction in cell proliferation at 500 uM after 72 hrs by crystal violet staining based assay; type: functional
J774.A1 [3] = experiment: Antiproliferative activity against mouse J774A.1 cells assessed as change in cell proliferation at 100 uM after 72 hrs by crystal violet staining based assay relative to control; type: functional
[4] = target: T1, Farnesyl pyrophosphate synthase (Homo sapiens) (UniProt P14324); experiment: Inhibition of recombinant human C-terminal His6-tagged FPPS expressed in Escherichia coli BL21 at 1 to 10 uM using DMAPP and IPP as substrates pretreated for 15 mins followed by substrates addition and measured after 1 hr by colorimetric method relative to control
T1 sequence (whole entry): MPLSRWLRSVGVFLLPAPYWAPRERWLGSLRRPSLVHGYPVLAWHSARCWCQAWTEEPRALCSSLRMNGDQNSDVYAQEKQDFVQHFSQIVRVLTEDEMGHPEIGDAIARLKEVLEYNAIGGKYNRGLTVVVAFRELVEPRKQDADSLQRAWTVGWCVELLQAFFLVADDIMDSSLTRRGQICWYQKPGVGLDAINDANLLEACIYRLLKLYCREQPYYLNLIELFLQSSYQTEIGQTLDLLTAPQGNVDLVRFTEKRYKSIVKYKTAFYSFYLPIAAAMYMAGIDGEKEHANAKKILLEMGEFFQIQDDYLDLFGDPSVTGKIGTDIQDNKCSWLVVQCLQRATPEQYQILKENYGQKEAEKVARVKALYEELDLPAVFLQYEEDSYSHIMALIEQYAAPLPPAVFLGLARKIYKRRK

PC-3 [5] = experiment: Antiproliferative activity against human PC3 cells assessed as change in cell proliferation at 100 uM after 72 hrs by crystal violet staining based assay relative to control; type: functional
RAW264.7 [6] = experiment: Antiproliferative activity against mouse RAW264.7 cells assessed as change in cell proliferation at 100 uM after 72 hrs by crystal violet staining based assay relative to control; type: functional
MG-63 [7] = experiment: Antiproliferative activity against human MG63 cells assessed as change in cell proliferation at 100 uM after 72 hrs by crystal violet staining based assay relative to control; type: functional
RAW264.7 [8] = experiment: Antiproliferative activity against mouse RAW264.7 cells assessed as reduction in cell proliferation at 500 uM after 72 hrs by crystal violet staining based assay; type: functional
[9] = target: T2, Geranylgeranyl pyrophosphate synthase (Homo sapiens) (UniProt O95749); experiment: Inhibition of recombinant human C-terminal His6-tagged GGPPS expressed in Escherichia coli BL21 at 1 to 10 uM using IPP and FPP as substrates pretreated for 15 mins followed by substrates addition and measured after 1 hr by colorimetric method relative to control
T2 sequence (whole entry): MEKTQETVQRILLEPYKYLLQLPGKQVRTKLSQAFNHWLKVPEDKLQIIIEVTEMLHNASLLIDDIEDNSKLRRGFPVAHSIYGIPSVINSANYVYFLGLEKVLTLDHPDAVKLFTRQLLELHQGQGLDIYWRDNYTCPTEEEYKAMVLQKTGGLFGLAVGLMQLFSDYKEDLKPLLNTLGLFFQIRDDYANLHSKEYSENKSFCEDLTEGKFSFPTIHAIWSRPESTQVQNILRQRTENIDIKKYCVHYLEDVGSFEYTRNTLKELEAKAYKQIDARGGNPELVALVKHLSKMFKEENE

MG-63 [10] = experiment: Antiproliferative activity against human MG63 cells assessed as reduction in cell proliferation at 500 uM after 72 hrs by crystal violet staining based assay; type: functional
[11] = target: T1, Farnesyl pyrophosphate synthase (Homo sapiens); experiment: Inhibition of recombinant human C-terminal His6-tagged FPPS expressed in Escherichia coli BL21 at 100 uM using DMAPP and IPP as substrates pretreated for 15 mins followed by substrates addition and measured after 1 hr by colorimetric method relative to control
Hydroxyapatite = experiment: Binding affinity to hydroxyapatite at 100 uM using sodium salt form of compound after 5 mins by ESI/MS analysis
[12] = target: T3, Farnesyl pyrophosphate synthase (Homo sapiens, UniProt P14324); experiment: Inhibition of recombinant human C-terminal His6-tagged FPPS expressed in Escherichia coli BL21 using DMAPP and IPP as substrates pretreated for 15 mins followed by substrates addition and measured after 1 hr by colorimetric method
T3 sequence (P14324 whole entry): T1 sequence (whole entry)

SMILES	Activity (J774.A1 [1])	Activity (PC-3 [2])	Activity (J774.A1 [3]) [%]	inhibition [4] [%]	Activity (PC-3 [5]) [%]	Activity (RAW264.7 [6]) [%]	Activity (MG-63 [7]) [%]	Activity (RAW264.7 [8])	inhibition [9] [%]	Activity (MG-63 [10])	inhibition [11]	Activity (Hydroxyapatite) [%]	IC50 [12] [µM]
O=P(O)(O)C(O)(CCCCc1ncccn1)P(=O)(O)O	inactive	inactive	-24.754	68 to 79	-14.446	-35.941	-0.023	inactive	68 to 79	inactive	51%	–	–
CC(Nc1ncc2ccccc2n1)C(O)(P(=O)(O)O)P(=O)(O)O (racemic)	inactive	inactive	-18.855	68 to 79	-17.252	-16.783	-8.959	inactive	68 to 79	inactive	40%	–	–
O=P(O)(O)C(O)(CNc1nc(-c2ccccc2)nc2ccccc12)P(=O)(O)O	inactive	inactive	-55.522	68 to 79	0.156	-51.774	-1.127	inactive	68 to 79	inactive	21%	–	–
O=P(O)(O)C(O)(CCNc1nc(-c2ccccc2)nc2ccccc12)P(=O)(O)O	inactive	inactive	-37.121	68 to 79	-21.523	-30.319	-5.102	inactive	68 to 79	inactive	25%	–	–
O=P(O)(O)C(O)(CCCCc1ncnc2ccccc12)P(=O)(O)O	inactive	inactive	-15.466	68 to 79	-10.283	-29.565	24.024	inactive	68 to 79	inactive	29%	–	–
O=P(O)(O)C(O)(CCCNc1ncccn1)P(=O)(O)O	inactive	inactive	-37.544	68 to 79	-45.479	-44.249	-3.759	inactive	68 to 79	inactive	43%	–	–
O=P(O)(O)C(O)(CNc1ncc2ccccc2n1)P(=O)(O)O	inactive	inactive	-11.108	68 to 79	-23.934	-25.015	-15.998	inactive	68 to 79	inactive	39.9%	–	–
O=P(O)(O)C(O)(CNc1ncnc2ccccc12)P(=O)(O)O	inactive	inactive	-27.398	68 to 79	-9.488	-34.592	-15.397	inactive	68 to 79	inactive	52%	81	–
O=P(O)(O)C(O)(CSc1nc2ccccc2s1)P(=O)(O)O	–	inactive	–	68 to 79	–	–	–	–	68 to 79	inactive	26%	–	–
O=P(O)(O)C(O)(CCNc1ncccn1)P(=O)(O)O	inactive	inactive	-3.329	68 to 79	-49.419	-18.897	-18.291	inactive	68 to 79	inactive	54%	–	–
O=P(O)(O)C(O)(CCCNc1ncnc2ccccc12)P(=O)(O)O	inactive	inactive	-10.813	68 to 79	-27.057	-16.077	21.28	inactive	68 to 79	inactive	25%	–	–
O=P(O)(O)C(O)(CCCCc1ncc2ccccc2n1)P(=O)(O)O	inactive	inactive	-47.396	68 to 79	-16.093	-50.127	-2.74	inactive	68 to 79	inactive	48%	–	–
O=P(O)(O)C(O)(CNc1nc2ccccc2s1)P(=O)(O)O	–	inactive	–	68 to 79	–	–	–	–	68 to 79	inactive	inactive	–	–
O=P(O)(O)C(O)(CCNc1ncnc2ccccc12)P(=O)(O)O	inactive	inactive	6.688	68 to 79	-1.552	-16.95	13.185	inactive	68 to 79	inactive	56%	–	–
O=P(O)(O)C(O)(CCCNc1ncc2ccccc2n1)P(=O)(O)O	inactive	inactive	-58.954	68 to 79	-19.628	-24.106	5.921	inactive	68 to 79	inactive	30%	–	–
O=P(O)(O)C(O)(CSc1nc2ccccc2[nH]1)P(=O)(O)O	–	inactive	–	68 to 79	–	–	–	–	68 to 79	inactive	24%	–	–
O=P(O)(O)C(O)(CCNc1ncc2ccccc2n1)P(=O)(O)O	inactive	inactive	-59.879	68 to 79	-13.524	-52.95	1.174	inactive	68 to 79	inactive	79%	84	41
CC(Nc1ncnc2ccccc12)C(O)(P(=O)(O)O)P(=O)(O)O (racemic)	inactive	inactive	-5.898	68 to 79	-15.839	-11.295	-4.026	inactive	68 to 79	inactive	56%	–	–
